Results on three compounds are retold here after ChEMBL document CHEMBL1127964, “N-linked analogs of retinoid O-glucuronides: potential cancer chemopreventive/chemotherapeutic agents” (Bioorg Med Chem Lett, 1994).

The species named for one assay is Rattus norvegicus. The assay can be described thus: Antitumor activity against DMBA-induced mammary tumors in rats. Type of assay: functional.
In assay [1] the target is T1, Retinoic acid receptor gamma (Homo sapiens, UniProt P13631).
T1 sequence (P13631 whole entry): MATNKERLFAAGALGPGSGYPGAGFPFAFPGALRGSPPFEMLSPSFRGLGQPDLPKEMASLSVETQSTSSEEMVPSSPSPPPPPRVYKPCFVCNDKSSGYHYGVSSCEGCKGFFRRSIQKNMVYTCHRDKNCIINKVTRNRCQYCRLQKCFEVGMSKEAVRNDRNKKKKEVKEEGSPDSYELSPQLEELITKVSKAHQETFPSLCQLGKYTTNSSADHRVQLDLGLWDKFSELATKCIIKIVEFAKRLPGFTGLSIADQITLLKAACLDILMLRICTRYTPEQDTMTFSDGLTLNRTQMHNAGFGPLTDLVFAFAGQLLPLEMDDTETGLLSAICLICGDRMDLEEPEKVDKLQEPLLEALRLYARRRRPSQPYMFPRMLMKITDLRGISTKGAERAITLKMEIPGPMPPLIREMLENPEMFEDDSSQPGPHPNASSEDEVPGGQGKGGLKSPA
The assay can be described thus: Inhibition of [3H]RA to binding Retinoic acid receptor RAR gamma.

Assay [2] deals with T1, Retinoic acid receptor gamma. As to the kind of experiment: Inhibition of [3H]RA binding to Retinoic acid receptor RAR gamma.

SMILES strings stand for the structures.

As usually defined, the Ki is the dissociation constant of the complex between target and ligand, obtained from inhibition or displacement. Higher therefore signals weaker binding. As for `CC1=C(/C=C/C(C)=C/C=C/C(C)=C/C(=O)NC2OC(CO)C(O)C(O)C2O)C(C)(C)CCC1` (stereo unspecified), in the assay filed under Rattus norvegicus, the Tumor is 0.92 number, the Tumor incidence is on record as 58% and the Tumor latency turned out to be 64 days. The compound also had a Ki in assay [1] of 710 nM.
For the compound `CC1=C(/C=C/C(C)=C/C=C/C(C)=C/C(=O)NC2OC(C(=O)O)C(O)C(O)C2O)C(C)(C)CCC1` (stereo unspecified), in the assay filed under Rattus norvegicus, the Tumor is 0.83 number, the Tumor incidence stood at 50% and the Tumor latency was determined as 64 days. This compound showed a Ki in assay [2] of 280 nM.
Turning to `CC1=C(/C=C/C(C)=C/C=C/C(C)=C/C(=O)O)C(C)(C)CCC1` [TRETINOIN], in the assay filed under Rattus norvegicus, the Tumor stood at 1.17 number, the Tumor incidence turned out to be 83% and the Tumor latency was found to be 49 days.
